Values belong to the compound of their own block, whether it stands above or below them.
How the values were obtained:
HCT-116 [1] = assay: Antiproliferative activity against human HCT-116 cells assessed as inhibition of cell growth; type: functional, cell-based
A549 = assay: Antiproliferative activity against human A549 cells assessed as inhibition of cell growth; type: functional, cell-based
MDA-MB-231 = assay: Antiproliferative activity against human MDA-MB-231 cells assessed as inhibition of cell growth; type: functional, cell-based
Tubulin [2] = assay: Inhibition of tubulin polymerization (unknown origin); type: protein-complex assay, Homo sapiens
[3] = target: Signal transducer and activator of transcription 3 (Homo sapiens, UniProt P40763); assay: Inhibition of STAT3 phosphorylation (unknown origin)
Sequence of Signal transducer and activator of transcription 3 (P40763 whole entry): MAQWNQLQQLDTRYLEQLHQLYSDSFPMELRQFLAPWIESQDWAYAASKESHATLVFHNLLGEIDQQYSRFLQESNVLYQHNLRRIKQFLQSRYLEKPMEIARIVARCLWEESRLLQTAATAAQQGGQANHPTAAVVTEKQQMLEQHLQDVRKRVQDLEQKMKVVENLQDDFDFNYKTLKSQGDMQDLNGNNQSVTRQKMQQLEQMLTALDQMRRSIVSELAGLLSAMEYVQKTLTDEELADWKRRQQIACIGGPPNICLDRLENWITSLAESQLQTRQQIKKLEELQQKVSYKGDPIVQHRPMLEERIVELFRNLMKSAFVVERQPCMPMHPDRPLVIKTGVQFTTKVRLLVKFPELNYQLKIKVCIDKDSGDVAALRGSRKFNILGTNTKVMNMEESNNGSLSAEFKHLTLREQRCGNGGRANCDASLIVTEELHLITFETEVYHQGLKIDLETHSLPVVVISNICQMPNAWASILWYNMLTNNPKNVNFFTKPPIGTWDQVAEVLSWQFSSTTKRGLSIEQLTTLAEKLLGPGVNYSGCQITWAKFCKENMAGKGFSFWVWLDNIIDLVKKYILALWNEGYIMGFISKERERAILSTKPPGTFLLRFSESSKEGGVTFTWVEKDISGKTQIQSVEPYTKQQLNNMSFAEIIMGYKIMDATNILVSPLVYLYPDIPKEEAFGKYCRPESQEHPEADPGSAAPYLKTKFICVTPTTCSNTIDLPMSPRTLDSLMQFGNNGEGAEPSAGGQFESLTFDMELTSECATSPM

Tubulin [4] = assay: Inhibition of tubulin polymerization (unknown origin) by fluorescence-based tubulin polymerization assay; type: protein-complex assay, Homo sapiens
CAPAN-1 = assay: Antiproliferative activity against human CAPAN-1 cells assessed as inhibition of cell growth incubated for 72 hrs by IncuCyte live-cell imaging analysis; type: functional, cell-based; details: CAPAN-1, 72 h
HCT-116 [5] = assay: Antiproliferative activity against human HCT-116 cells assessed as inhibition of cell growth incubated for 72 hrs by IncuCyte live-cell imaging analysis; type: functional, cell-based; details: HCT-116, 72 h
NCI-H460 = assay: Antiproliferative activity against human NCI-H460 cells assessed as inhibition of cell growth incubated for 72 hrs by IncuCyte live-cell imaging analysis; type: functional, cell-based; details: NCI-H460, 72 h
[6] = Antiproliferative activity against human DND41 cells assessed as inhibition of cell growth incubated for 72 hrs by IncuCyte live-cell imaging analysis; type: functional, cell-based; details: DND41, 72 h
HL-60 = assay: Antiproliferative activity against human HL-60 cells assessed as inhibition of cell growth incubated for 72 hrs by IncuCyte live-cell imaging analysis; type: functional, cell-based; details: HL-60, 72 h
K562 = assay: Antiproliferative activity against human K562 cells assessed as inhibition of cell growth incubated for 72 hrs by IncuCyte live-cell imaging analysis; type: functional, cell-based; details: K562, 72 h
Z-138 = assay: Antiproliferative activity against human Z138 cells assessed as inhibition of cell growth incubated for 72 hrs by IncuCyte live-cell imaging analysis; type: functional, cell-based; details: Z-138, 72 h
DU-145 = assay: Cytotoxicity against human DU-145 cells assessed as inhibition of cell growth incubated for 24 hrs by MTT assay; type: functional, cell-based; details: DU-145, 24 h

IC50 (HCT-116 [1]): 3.04 µM | IC50 (A549): 1.35 µM | IC50 (MDA-MB-231): 2.85 µM | IC50 (Tubulin [2]): 0.83 µM | IC50 [3]: 6.84 µM
SMILES: C=CN(c1cccc2ccccc12)S(=O)(=O)c1ccc(OC)cc1

IC50 (Tubulin [4]): 3.9 µM | IC50 (HCT-116 [5]): 1.4 µM | IC50 (NCI-H460): 2.8 µM | IC50 (HL-60): 1.5 µM | IC50 (K562): 1.3 µM
SMILES: COC(=O)Nc1ccc(C(=O)Nc2ccccc2OC)c(O)c1
IC50 (CAPAN-1): 1.3 µM | IC50 [6]: 1.3 µM | IC50 (Z-138): 1.3 µM

SMILES: COc1cccc2c1C(=O)c1c(O)c3c(c(O)c1C2=O)C[C@@](O)(C(=O)CO)C[C@@H]3O[C@H]1C[C@H](N)[C@H](O)[C@H](C)O1 [DOXORUBICIN]
IC50 (DU-145): > 30 µM

Source: ChEMBL document CHEMBL5325469, “Research progress of STAT3-based dual inhibitors for cancer therapy” (Bioorg Med Chem, 2023)
